The values below come from patent US20240132431A1, “METHOD FOR ALKYLATING ACIDIC FUNCTIONAL GROUP” (Chugai Seiyaku Kabushiki Kaisha, priority 2021, published 2024).

This assay deals with T1, Bcl-2 protein (Recombinant Human Bcl-2 Protein) (Homo sapiens, UniProt P10415).
T1 construct: purchased Novus NBP2-34889
The assay can be described thus: Binding evaluation of mixture library compounds to Bcl-2 using AS-MS (affinity selection mass spectrometry). The following applies: for ASMS ratio (%) n = 1: replicate n = 1; for ASMS ratio (%) n = 1 / ASMS ratio (%) n = 2: ASMS Ratio(%)=(A−C)/B×100; for ASMS ratio (%) n = 2: replicate n = 2. The essentials:
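Bcl-2 binding is scored from LC/MS signal retained with protein through gel-filtration spin columns, normalised to unfiltered and protein-free controls. Incubation: 20 μM protein, […] per compound, 1 h, 23° C.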

Where [1] appears, read: AS-MS on the mixture of 1200 library compounds.
The mark [2] stands for this setting: AS-MS, mixture of 1200 compounds, Bcl-2.

T1 sequence (P10415 whole entry): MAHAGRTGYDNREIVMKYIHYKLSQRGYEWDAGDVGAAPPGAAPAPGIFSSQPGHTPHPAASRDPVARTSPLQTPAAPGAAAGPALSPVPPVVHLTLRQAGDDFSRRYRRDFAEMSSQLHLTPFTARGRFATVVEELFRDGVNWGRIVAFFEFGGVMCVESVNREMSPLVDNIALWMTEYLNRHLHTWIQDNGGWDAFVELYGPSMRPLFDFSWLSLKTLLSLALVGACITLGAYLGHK

For `CCOc1cncc(C#Cc2cncc(C(=O)N3CCN(c4ccc(C(=O)NS(=O)(=O)c5ccc(NCCSc6ccccc6)c([N+](=O)[O-])c5)nn4)CC3)c2)c1` [B2Q010-01, 6-[4-[5-[2-(5-Ethoxypyridin-3-yl)ethynyl]pyridine-3-carbonyl]piperazin-1-yl]-N-[3-nitro-4-(2-phenylsulfanylethylamino)phenyl]sulfonylpyridazine-3-carboxamide], where the note is “AS-MS, mixture library, Bcl-2”, the “ASMS ratio (%) n = 1” value was found to be 13.3% and the “ASMS ratio (%) n = 2” value turned out to be 8.9%.

With `CCOc1cccc(-c2cc(OC)c(CN3CCN(c4ccc(C(=O)NS(=O)(=O)C(C)(C)C)nn4)CC3)c(OC)c2)c1` [B2L085-01, N-tert-Butylsulfonyl-6-[4-[[4-(3-ethoxyphenyl)-2,6-dimethoxyphenyl]methyl]piperazin-1-yl]pyridazine-3-carboxamide], the “ASMS ratio (%)” value runs as follows: (n = 1) 0.0%; (n = 2) 0.0%.

With `CCOc1cncc(-c2cc(OC)c(CN3CCN(c4ccc(C(=O)Nc5ccc(OC)cc5)nn4)CC3)c(OC)c2)c1` [B1O086-01, 6-[4-[[4-(5-Ethoxypyridin-3-yl)-2,6-dimethoxyphenyl]methyl]piperazin-1-yl]-N-(4-methoxyphenyl)pyridazine-3-carboxamide], the “ASMS ratio (%) n = 2” value under setting [1] is −0.4%.

Consider `CCOc1cccc(-c2cc(C(=O)N3CCN(c4ccc(C(=O)Nc5ccc(OC)cc5)nn4)CC3)cc(C(C)(C)C)c2)c1` [B1O015-01, 6-[4-[3-tert-Butyl-5-(3-ethoxyphenyl)benzoyl]piperazin-1-yl]-N-(4-methoxyphenyl)pyridazine-3-carboxamide], for which, under setting [1], the “ASMS ratio (%) n = 1” value was found to be 6.0% and the “ASMS ratio (%) n = 2” value is reported as −2.7%.

For the compound `CCOc1cncc(-c2cc(C(=O)N3CCN(c4ccc(C(=O)NS(=O)(=O)c5ccc(NCCSc6ccccc6)c([N+](=O)[O-])c5)nn4)CC3)cc(C(F)(F)F)c2)c1` [B2Q018-01, 6-[4-[3-(5-Ethoxypyridin-3-yl)-5-(trifluoromethyl)benzoyl]piperazin-1-yl]-N-[3-nitro-4-(2-phenylsulfanylethylamino)phenyl]sulfonylpyridazine-3-carboxamide], where the note is “AS-MS, mixture library, Bcl-2”, the “ASMS ratio (%) n = 2” value is 0.0%.

Regarding `CCOc1cncc(-c2cc(CN3CCN(c4ccc(C(=O)NS(=O)(=O)c5ccc(NCCSc6ccccc6)c(C(F)(F)F)c5)nn4)CC3)cc(C(F)(F)F)c2)c1` [B2R088-01, 6-[4-[[3-(5-Ethoxypyridin-3-yl)-5-(trifluoromethyl)phenyl]methyl]piperazin-1-yl]-N-[4-(2-phenylsulfanylethylamino)-3-(trifluoromethyl)phenyl]sulfonylpyridazine-3-carboxamide], the “ASMS ratio (%)” value (n = 1) was 35.3% and the “ASMS ratio (%)” value (n = 2) is given as 13.1%.

Consider `CCOc1cncc(C#Cc2ccccc2C(=O)N2CCN(c3ccc(C(=O)N(CC)CC)nn3)CC2)c1` [B4J008-01, 6-[4-[2-[2-(5-Ethoxypyridin-3-yl)ethynyl]benzoyl]piperazin-1-yl]-N,N-diethylpyridazine-3-carboxamide], for which, under setting [1], the “ASMS ratio (%) n = 1” value was 0.0% and the “ASMS ratio (%) n = 2” value turned out to be 0.0%.

In the case of `CCOc1cccc(-c2ccc(C(=O)N3CCN(c4ccc(C(=O)N(CC)CC)nn4)CC3)cc2C)c1` [B4J003-01, 6-[4-[4-(3-Ethoxyphenyl)-3-methylbenzoyl]piperazin-1-yl]-N,N-diethylpyridazine-3-carboxamide], under setting [1], the “ASMS ratio (%) n = 1” value is 0.0% and the “ASMS ratio (%) n = 2” value was 0.0%.

`CCOc1cncc(-c2ccc(C(=O)N3CCN(c4ccc(C(=O)NS(=O)(=O)CCC(F)(F)F)nn4)CC3)c3ccccc23)c1` [B2N014-01, 6-[4-[4-(5-Ethoxypyridin-3-yl)naphthalene-1-carbonyl]piperazin-1-yl]-N-(3,3,3-trifluoropropylsulfonyl)pyridazine-3-carboxamide]: the “ASMS ratio (%)” value (n = 1) is 0.0% and the “ASMS ratio (%)” value (n = 2) was 0.0%.

For `CCOc1cccc(C#Cc2ccccc2C(=O)N2CCN(c3ccc(C(=O)NCC45CC6CC(CC(C6)C4)C5)cc3)CC2)c1` [B1A029-01, N-(1-Adamantylmethyl)-4-[4-[2-[2-(3-ethoxyphenyl)ethynyl]benzoyl]piperazin-1-yl]benzamide], under setting [2], the “ASMS ratio (%) n = 1” value is on record as −22.3% and the “ASMS ratio (%) n = 2” value is on record as −13.0%.

Turning to `CCOc1cncc(-c2cc(C(=O)N3CCN(c4ccc(C(=O)Nc5ccc(OC)cc5)cc4)CC3)cc(C(C)(C)C)c2)c1` [B1O038-01, 4-[4-[3-tert-Butyl-5-(5-ethoxypyridin-3-yl)benzoyl]piperazin-1-yl]-N-(4-methoxyphenyl)benzamide], under setting [1], the “ASMS ratio (%) n = 1” value was 2.8% and the “ASMS ratio (%) n = 2” value was −0.7%.

Take `CCOc1cccc(-c2cc(C(=O)N3CCN(c4ccc(C(=O)NS(C)(=O)=O)nn4)CC3)cc(C(C)(C)C)c2)c1` [B2I015-01, 6-[4-[3-tert-Butyl-5-(3-ethoxyphenyl)benzoyl]piperazin-1-yl]-N-methylsulfonylpyridazine-3-carboxamide]: under “AS-MS, mixture library, Bcl-2”, the “ASMS ratio (%) n = 1” value is recorded as 0.0% and the “ASMS ratio (%) n = 2” value is reported as 0.0%.

As for `CCOc1cccc(-c2ccc(C(=O)N3CCN(c4ccc(C(=O)NS(=O)(=O)c5ccc(NCCSc6ccccc6)c(C(F)(F)F)c5)nn4)CC3)cc2C)c1` [B2R003-01, 6-[4-[4-(3-Ethoxyphenyl)-3-methylbenzoyl]piperazin-1-yl]-N-[4-(2-phenylsulfanylethylamino)-3-(trifluoromethyl)phenyl]sulfonylpyridazine-3-carboxamide], the “ASMS ratio (%)” value is, setting by setting: (n = 1) 21.6%; (n = 2) 0.0%.

For the compound `CCOc1cccc(-c2cc(C(=O)N3CCN(c4ccc(C(=O)NS(=O)(=O)CC56CC7CC(CC(C7)C5)C6)cc4)CC3)cc(C(F)(F)F)c2)c1` [B2A039-01, N-(1-Adamantylmethylsulfonyl)-4-[4-[3-(3-ethoxyphenyl)-5-(trifluoromethyl)benzoyl]piperazin-1-yl]benzamide], for the setting “AS-MS, mixture library, Bcl-2”, the “ASMS ratio (%) n = 1” value came out at 7.4% and the “ASMS ratio (%) n = 2” value was −10.4%.

On to `CCOc1cccc(C#Cc2ccccc2C(=O)N2CCN(c3ccc(C(=O)N(CC)CC)cc3)CC2)c1` [B4J029-01, 4-[4-[2-[2-(3-Ethoxyphenyl)ethynyl]benzoyl]piperazin-1-yl]-N,N-diethylbenzamide], for which, under setting [1], the “ASMS ratio (%) n = 1” value is listed as 0.0% and the “ASMS ratio (%) n = 2” value was 0.0%.

In the case of `CCOc1cncc(-c2ccc(C(=O)N3CCN(c4ccc(C(=O)Nc5ccc(OC)cc5)nn4)CC3)cc2F)c1` [B1O006-01, 6-[4-[4-(5-Ethoxypyridin-3-yl)-3-fluorobenzoyl]piperazin-1-yl]-N-(4-methoxyphenyl)pyridazine-3-carboxamide], under setting [1], the “ASMS ratio (%) n = 1” value turned out to be 4.7% and the “ASMS ratio (%) n = 2” value stood at 0.8%.

In the case of `CCOc1cncc(-c2ccc(C(=O)N3CCN(c4ccc(C(=O)N(C)CC56CC7CC(CC(C7)C5)C6)cc4)CC3)c3ccccc23)c1` [B3A036-01, N-(1-Adamantylmethyl)-4-[4-[4-(5-ethoxypyridin-3-yl)naphthalene-1-carbonyl]piperazin-1-yl]-N-methylbenzamide], under setting [1], the “ASMS ratio (%) n = 1” value was 2.8% and the “ASMS ratio (%) n = 2” value is −3.3%.

As to `CCOc1cncc(-c2cc(OC)c(CN3CCN(c4ccc(C(=O)NS(=O)(=O)C(C)(C)C)cc4)CC3)c(OC)c2)c1` [B2L060-01, N-tert-Butylsulfonyl-4-[4-[[4-(5-ethoxypyridin-3-yl)-2,6-dimethoxyphenyl]methyl]piperazin-1-yl]benzamide], the “ASMS ratio (%)” value (n = 2) was 0.0%.

For `CCOc1cccc(-c2cc(C(=O)N3CCN(c4ccc(C(=O)Nc5ccc(OC)cc5)nn4)CC3)cc(C(F)(F)F)c2)c1` [B1O017-01, 6-[4-[3-(3-Ethoxyphenyl)-5-(trifluoromethyl)benzoyl]piperazin-1-yl]-N-(4-methoxyphenyl)pyridazine-3-carboxamide], under setting [1], the “ASMS ratio (%) n = 1” value is 2.5% and the “ASMS ratio (%) n = 2” value was determined as 0.0%.

With `CCOc1cncc(-c2ccc(C(=O)N3CCN(c4ccc(C(=O)NS(C)(=O)=O)nn4)CC3)c3ccccc23)c1` [B2I014-01, 6-[4-[4-(5-Ethoxypyridin-3-yl)naphthalene-1-carbonyl]piperazin-1-yl]-N-methylsulfonylpyridazine-3-carboxamide], for the setting “AS-MS, mixture library, Bcl-2”, the “ASMS ratio (%) n = 1” value came to 1.0% and the “ASMS ratio (%) n = 2” value amounted to 2.3%.

In the case of `CCOc1cncc(-c2cnn(-c3cc(C(=O)N4CCN(c5ccc(C(=O)N(C)CC67CC8CC(CC(C8)C6)C7)cc5)CC4)cc(C(F)(F)F)c3)c2)c1` [B3A044-01, N-(1-Adamantylmethyl)-4-[4-[3-[4-(5-ethoxypyridin-3-yl)pyrazol-1-yl]-5-(trifluoromethyl)benzoyl]piperazin-1-yl]-N-methylbenzamide], under setting [1], the “ASMS ratio (%) n = 1” value was found to be 12.3% and the “ASMS ratio (%) n = 2” value is reported as −12.4%.

Take `CCOc1cccc(-c2ccc(CN3CCN(c4ccc(C(=O)NS(=O)(=O)c5ccc(NCCSc6ccccc6)c([N+](=O)[O-])c5)cc4)CC3)cc2F)c1` [B2Q051-01, 4-[4-[[4-(3-Ethoxyphenyl)-3-fluorophenyl]methyl]piperazin-1-yl]-N-[3-nitro-4-(2-phenylsulfanylethylamino)phenyl]sulfonylbenzamide]: for the setting “AS-MS, mixture library, Bcl-2”, the “ASMS ratio (%) n = 1” value worked out at 22.6% and the “ASMS ratio (%) n = 2” value is given as 2.1%.

Regarding `CCOc1cccc(-c2cnn(-c3cc(C(=O)N4CCN(c5ccc(C(=O)Nc6ccc(OC)cc6)cc5)CC4)cc(C(F)(F)F)c3)c2)c1` [B1O043-01, 4-[4-[3-[4-(3-Ethoxyphenyl)pyrazol-1-yl]-5-(trifluoromethyl)benzoyl]piperazin-1-yl]-N-(4-methoxyphenyl)benzamide], under setting [1], the “ASMS ratio (%) n = 1” value worked out at 2.2% and the “ASMS ratio (%) n = 2” value is −5.0%.
